Measurements published in patent US6737429B2, “Pyrrole derivatives” (Hoffmann-La Roche Inc., priority 2000, dated 2004).

Assays:
HIV-1 RT = HIV-1 RT (Human immunodeficiency virus type 1 group M subtype B, UniProt P04585); assay: HIV-1 Reverse Transcriptase Assay: Inhibitor IC50 Determination; assay type: biochemical; conditions: purified recombinant enzyme, poly(rA)/oligo(dT)16 template-primer, 37° C. 30 min
Procedure: HIV-1 Reverse Transcriptase Assay: Inhibitor IC50 Determination.
HIV-1 RT assay was carried out in 96-well Millipore filtermat NOB50 plates using purified recombinant enzyme and a poly(rA)/oligo(dT)16 template-primer in a total volume of 50 μL. The assay constituents were 50 mM Tris/HCl, 50 mM NaCl, 1 mM EDTA, 6 mM MgCl2, 5 μM dTTP, 0.1 μCi [^3H] dTTP, 5 μg/ml poly (rA) pre annealed to 2.5 μg/ml oligo (dT)16 and a range of inhibitor concentrations in a final concentration of 10% DMSO. Reactions were initiated by adding 5 nM HIV-1 RT and after incubation at 37° C. for 30 min, they were stopped by the addition of 50 μl ice cold 20% TCA and allowed to precipitate at 4° C. for 30 min. The precipitates were collected by applying vacuum to the plate and sequentially washing with 2×200 μl of 10% TCA and 2×200 μl 70% ethanol. Finally the plates were dried and radioactivity counted in a Wallac Microbeta 1450 after the addition of 15 μl scintillation fluid per well. IC50's were calculated by plotting % inhibition versus log10 inhibitor concentrations.

[1] = system: HXB2-strain of HIV in MT4 cells; assay: Antiviral assay: protection of HIV-infected MT4 cells from cell-death (MTT); assay type: cell-based; conditions: Human immunodeficiency virus 1, 120 h; MT4 cells infected with HXB2-strain of HIV, 5 d, MTT viability
Procedure: Anti-HIV antiviral activity was assessed using an adaptation of the method of Pauwels et al. {Pauwels et al., 1988, J Virol Methods 20:309-321}. The method is based on the ability of compounds to protect HIV-infected T lymphoblastoid cells (MT4 cells) from cell-death mediated by the infection. The endpoint of the assay was calculated as the concentration of compound at which the cell viability of the culture was preserved by 50% (‘50% inhibitory concentration’, IC50). The cell viability of a culture was determined by the uptake of soluble, yellow 3-[4,5-dimethylthiazol-2-yl]-2,5-diphenyltetrazolium bromide (MTT) and its reduction to a purple insoluble formazan salt. After solubilization, spectrophotometric methods were employed to measure the amount of formazan product.
MT4 cells were prepared to be in logarithmic-phase growth and a total of 2×10^6 cells infected with the HXB2-strain of HIV at a multiplicity of 0.0001 infectious units of virus per cell in a total volume of between 200-500 microliters. The cells were incubated with virus for one h at 37° C. before removal of virus. The cells are then washed in 0.01 M phosphate buffered saline, pH 7.2 before being resuspensed in culture medium for incubation in culture with serial dilutions of test compound. The culture medium used was RPMI 1640 without phenol red, supplemented with penicillin, streptomycin, L-glutamine and 10% fetal calf serum (GM10).
Test compounds were prepared as 2 mM solutions in dimethyl sulphoxide (DMSO). Four replicate, serial 2-fold dilutions in GM10 were then prepared and 50 microliters amounts placed in 96-well plates over a final nanomolar concentration range of 625-1.22. Fifty microliters GM10 and 3.5×10^4 infected cells were then added to each well. Control cultures containing no cells (blank), uninfected cells (100% viability; 4 replicates) and infected cells without compound (total virus-mediated cell death; 4 replicates) were also prepared. The cultures were then incubated at 37° C. in a humidified atmosphere of 5% CO2 in air for 5 d.
A fresh solution of 5 mg/mL MTT was prepared in 0.01 M phosphate buffered saline, pH 7.2 and 20 microliters added to each culture. The cultures were further incubated as before for 2 h. They were then mixed by pipetting up and down and 170 microliters of Triton X-100 in acidified isopropanol (10% v/v Triton X-100 in 1:250 mixture of concentrated HCl in isopropanol). When the formazan deposit was fully solubilized by further mixing, the absorbance (OD) of the cultures was measured at 540 nm and 690 nm wavelength (690 nm readings were used as blanks for artifacts between wells). The percent protection for each treated culture was calculated using the equation: [formula]

Row | Compound | IC50 (HIV-1 RT) | IC50 [1]
1 | Cc1c(CO)c(-c2ccccc2)c(Sc2cc(Cl)cc(Cl)c2)n1Cc1ccncc1 | 493 nM | 407 nM
2 | CC(C)c1c(CO)c(C(C)C)n(Cc2ccncc2)c1Sc1cccc(Cl)c1 | 272 nM | 110 nM
3 | Cc1c(C#N)c(-c2ccccc2)c(Sc2cc(Cl)cc(Cl)c2)n1Cc1ccncc1 | 2450 nM | –
4 | Cc1c(CO)c(C(C)C)c(Sc2cc(Cl)cc(Cl)c2)n1Cc1cccnc1 | 79 nM | 17.5 nM
5 | CC(C)c1cc(COC(N)=O)n(Cc2ccncc2)c1Sc1cc(Cl)cc(Cl)c1 | 33 nM | 16 nM
6 | CC(C)c1cc(CO)n(Cc2ccncc2)c1Sc1cc(Cl)cc(Cl)c1 | 289 nM | 183 nM
7 | CC(=O)NCc1c(C(C)C)c(Sc2cc(Cl)cc(Cl)c2)n(Cc2ccncc2)c1C | 198 nM | 32 nM
8 | Cc1c(C(N)=O)c(C(C)C)c(Sc2cc(Cl)cc(Cl)c2)n1Cc1ccncc1 | 150 nM | 22 nM
9 | Cc1c(CO)c(C(C)C)c(Sc2ccccc2)n1Cc1ccncc1 | 260 nM | 11.5 nM
10 | COCc1c(C(C)C)c(Sc2cc(Cl)cc(Cl)c2)n(Cc2ccncc2)c1C | 658 nM | 91 nM
11 | Cc1c(C(C)C)c(Sc2cc(Cl)cc(Cl)c2)n(Cc2ccncc2)c1C | 125 nM | 94 nM
12 | CC(=O)/C=C/c1cc(C(C)C)c(Sc2cc(Cl)cc(Cl)c2)n1Cc1ccncc1 | 972 nM | –
13 | Cc1c(CO)c(C)n(Cc2ccncc2)c1Sc1cc(Cl)cc(Cl)c1 | 287 nM | 49 nM
14 | Cc1c(CN=[N+]=[N-])c(C(C)C)c(Sc2cc(Cl)cc(Cl)c2)n1Cc1ccncc1 | 91 nM | 16 nM
15 | COC(=O)NCc1c(C(C)C)c(Sc2cc(Cl)cc(Cl)c2)n(Cc2ccncc2)c1C | 90 nM | –
16 | Cc1c(CO)c(C(C)C)c(Sc2cc(Cl)ccc2Cl)n1Cc1ccncc1 | 86 nM | 69 nM
17 | CCc1c(CO)c(C(C)C)c(Sc2cc(Cl)cc(Cl)c2)n1Cc1ccncc1 | 43 nM | 11 nM
18 | Cc1c(CO)c(C(C)C)c(Sc2cccc(Cl)c2)n1Cc1cscn1 | 4120 nM | –
19 | Cc1c(CNC(=O)c2ccccc2)c(C(C)C)c(Sc2cc(Cl)cc(Cl)c2)n1Cc1ccncc1 | 283 nM | 84 nM
20 | Cc1c(CO)c(C(C)C)c(Sc2ccc(F)cc2Cl)n1Cc1ccncc1 | 5430 nM | –
21 | Cc1cc(C(C)C)c(Sc2cc(Cl)cc(Cl)c2)n1Cc1ccncc1 | 117 nM | 44 nM
22 | Cc1c(CO)c(C(C)C)c(Sc2cc(Cl)cc(Cl)c2)n1C | 930 nM | 580 nM
23 | CC(C)c1c(CO)c(CO)n(Cc2ccncc2)c1Sc1cc(Cl)cc(Cl)c1 | 60 nM | 10 nM
